Here are results for 19 molecules from patent US9795140B2, “Molecules having pesticidal utility, and intermediates, compositions, and processes, related thereto” (priority 2015, dated 2017).

Common to all, as to assay type: in vivo
The test system of series [1] is Yellow Fever Mosquito (Aedes aegypti, AEDSAE). In words: Bioassay on Yellow Fever Mosquito (YFM) larvae, 96-well plate. Conditions: about 1 day-old larvae, room temperature, 3 days, scored on mortality. Summed up:
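Each well was scored for mortality after 3 days at room temperature under a non-evaporative lid. Test molecules came from DMSO masters (4000 ppm stock) diluted with water/acetone 90:10 and dispensed into six replicate plates, which were then infested with roughly 1-day-old larvae in liver-powder water.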

Series [2] concerns Beet Armyworm (Spodoptera exigua, LAPHEG). In words: Bioassay on Beet Armyworm (BAW), 128-well diet tray assay. Conditions: 168 h, read-out: BAW % Control (or Mortality) rating. Summed up:
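Test molecule dissolved in acetone-water 90:10 is applied at 50 μg/cm^2 onto artificial diet and allowed to dry. Second instar larvae, one to five per well, are then added, and trays are vented and kept at 25° C. for five to seven days before mortality is scored.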

Series [3] concerns Cabbage Looper (Trichoplusia ni, TRIPNI). In words: Bioassay on Cabbage Looper (CL), 128-well diet tray assay. Conditions: 168 h, read-out: CL % Control (or Mortality) rating. A digest of the protocol: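 Percent larval mortality, averaged across eight replicate wells, was scored after 5–7 days at 25 °C with a 14:10 photoperiod. Each well held 1 mL diet surface-treated at 50 μg/cm^2 with test molecule from a 90:10 acetone-water solution, then dried. Wells were infested with one to five second-instar cabbage loopers.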

[4] abbreviates: 50 μg/cm^2 on artificial diet, second instar larvae, 25° C., five to seven days, average of eight wells.

The structures appear in SMILES notation. Where two headings read alike, the source gives them in different places.

Turning to `O=C(NCCC(F)(F)F)c1cc(NC(=O)[C@H]2[C@H](c3cc(Cl)cc(Cl)c3)C2(Cl)Cl)c(Cl)cc1Cl` (relative stereo) [F102, trans-2,4-Dichloro-5-(2,2-dichloro-3-(3,5-dichlorophenyl)cyclopropane-1-carboxamido)-N-(3,3,3-trifluoropropyl)benzamide], the “YFM % Control (or Mortality) rating” value in series [1] is listed as “A (80-100)”. Besides, the results for the mortality at 50 µg/cm2 in series [2] (setting [4]) and in series [3] (setting [4]) were 0 to 50% and 0%, respectively.
As to `CCNC(=O)c1cc(NC(=O)[C@H]2[C@H](c3ccc(F)c(Cl)c3)C2(Cl)Cl)ccc1Cl` (relative stereo) [F103, trans-2-Chloro-5-(2,2-dichloro-3-(3-chloro-4-fluorophenyl)cyclopropane-1-carboxamido)-N-ethylbenzamide], the “YFM % Control (or Mortality) rating” value in series [1] is given as “A (80-100)”. Further, the mortality at 50 µg/cm2 in series [2] (setting [4]) and in series [3] (setting [4]) was 50 to 100% throughout.
As to `O=C(NCCF)c1cc(NC(=O)[C@H]2[C@H](c3ccc(F)c(Cl)c3)C2(Cl)Cl)ccc1Cl` (relative stereo) [F104, trans-2-Chloro-5-(2,2-dichloro-3-(3-chloro-4-fluorophenyl)cyclopropane-1-carboxamido)-N-(2-fluoroethyl)benzamide], the “YFM % Control (or Mortality) rating” value in series [1] is “A (80-100)”. In addition, the mortality at 50 µg/cm2 in series [2] (setting [4]) and in series [3] (setting [4]) was 50 to 100% each time.
For the molecule `O=C(NCC(F)(F)F)c1cc(NC(=O)[C@H]2[C@H](c3ccc(F)c(Cl)c3)C2(Cl)Cl)ccc1Cl` (relative stereo) [F105, trans-2-Chloro-5-(2,2-dichloro-3-(3-chloro-4-fluorophenyl)cyclopropane-1-carboxamido)-N-(2,2,2-trifluoroethyl)benzamide], the “YFM % Control (or Mortality) rating” value in series [1] is given as “A (80-100)”. In addition, the mortality at 50 µg/cm2 in series [2] (setting [4]) and in series [3] (setting [4]) was 50 to 100% in each case.
Turning to `CCCNC(=O)c1cc(NC(=O)[C@H]2[C@H](c3ccc(F)c(Cl)c3)C2(Cl)Cl)ccc1Cl` (relative stereo) [F106, trans-2-Chloro-5-(2,2-dichloro-3-(3-chloro-4-fluorophenyl)cyclopropane-1-carboxamido)-N-propylbenzamide], the “YFM % Control (or Mortality) rating” value in series [1] is listed as “A (80-100)”. Further, the mortality at 50 µg/cm2 in series [2] (setting [4]) and in series [3] (setting [4]) was 50 to 100% each time.
For `O=C(NCCC(F)(F)F)c1cc(NC(=O)[C@H]2[C@H](c3ccc(F)c(Cl)c3)C2(Cl)Cl)ccc1Cl` (relative stereo) [F107, trans-2-Chloro-5-(2,2-dichloro-3-(3-chloro-4-fluorophenyl)cyclopropane-1-carboxamido)-N-(3,3,3-trifluoropropyl)benzamide], the “YFM % Control (or Mortality) rating” value in series [1] is recorded as “B (More than 0-Less than 80)”. In addition, the mortality at 50 µg/cm2 in series [2] (setting [4]) and in series [3] (setting [4]) was 50 to 100% throughout.
As for `O=C(NCC(F)(F)F)c1cc(NC(=O)[C@H]2[C@H](c3ccc(F)c(F)c3)C2(Cl)Cl)ccc1Cl` (relative stereo) [F108, 2-chloro-5-(trans-2,2-dichloro-3-(3,4-difluorophenyl)cyclopropane-1-carboxamido)-N-(2,2,2-trifluoroethyl)benzamide], in series [1], the “YFM % Control (or Mortality) rating” value is “A (80-100)”. For the same molecule, the mortality at 50 µg/cm2 in series [2] and in series [3] was 50 to 100% throughout.
For `O=C(NCC(F)(F)F)c1cc(NC(=O)[C@H]2[C@H](c3ccc(Cl)c(Br)c3)C2(Cl)Cl)ccc1Cl` (relative stereo) [F109, 5-(trans-3-(3-Bromo-4-chlorophenyl)-2,2-dichlorocyclopropane-1-carboxamido)-2-chloro-N-(2,2,2-trifluoroethyl)benzamide], the “YFM % Control (or Mortality) rating” value in series [1] is on record as “A (80-100)”. For the same molecule, the mortality at 50 µg/cm2 in series [2] (setting [4]) and in series [3] (setting [4]) was 50 to 100% throughout.
Take `O=C(NCC(F)(F)F)c1cc(NC(=O)[C@H]2[C@H](c3ccc(Br)c(Br)c3)C2(Cl)Cl)ccc1Cl` (relative stereo) [F111, 2-Chloro-5-(trans-2,2-dichloro-3-(3,4-dibromophenyl)cyclopropane-1-carboxamido)-N-(2,2,2-trifluoroethyl)benzamide]: the “YFM % Control (or Mortality) rating” value in series [1] is “A (80-100)”. Moreover, the mortality at 50 µg/cm2 in series [2] (setting [4]) and in series [3] (setting [4]) was 50 to 100% each time.
With `O=C(NCC(F)(F)F)c1cc(NC(=O)[C@H]2[C@H](c3ccc(C(F)(F)F)c(F)c3)C2(Cl)Cl)ccc1Cl` (relative stereo) [F112, 2-Chloro-5-(trans-2,2-dichloro-3-(3-fluoro-4-(trifluoromethyl)phenyl)cyclopropane-1-carboxamido)-N-(2,2,2-trifluoroethyl)benzamide], the “YFM % Control (or Mortality) rating” value in series [1] was “A (80-100)”. Further, the mortality at 50 µg/cm2 in series [2] (setting [4]) and in series [3] (setting [4]) was 50 to 100% in each case.
As for `O=C(NCC(F)(F)F)c1cc(NC(=O)[C@H]2[C@H](c3ccc(Br)c(F)c3)C2(Cl)Cl)ccc1Cl` (relative stereo) [F113, 5-(trans-3-(4-Bromo-3-fluorophenyl)-2,2-dichlorocyclopropane-1-carboxamido)-2-chloro-N-(2,2,2-trifluoroethyl)benzamide], in series [1], the “YFM % Control (or Mortality) rating” value is reported as “A (80-100)”. In addition, the mortality at 50 µg/cm2 in series [2] (setting [4]) and in series [3] (setting [4]) was 50 to 100% in each case.
Take `O=C(NCC(F)(F)F)c1cc(NC(=O)[C@H]2[C@H](c3ccc(C(F)(F)F)c(Br)c3)C2(Cl)Cl)ccc1Cl` (relative stereo) [F114, 5-(trans-3-(3-Bromo-4-(trifluoromethyl)phenyl)-2,2-dichlorocyclopropane-1-carboxamido)-2-chloro-N-(2,2,2-trifluoroethyl)benzamide]: in series [1], the “YFM % Control (or Mortality) rating” value is “A (80-100)”. In addition, the mortality at 50 µg/cm2 in series [2] (setting [4]) and in series [3] (setting [4]) was 50 to 100% in each case.
As to `O=C(NCC(F)(F)F)c1cc(NC(=O)[C@H]2[C@H](c3ccc(Br)c(C(F)(F)F)c3)C2(Cl)Cl)ccc1Cl` (relative stereo) [F115, 5-(trans-3-(4-Bromo-3-(trifluoromethyl)phenyl)-2,2-dichlorocyclopropane-1-carboxamido)-2-chloro-N-(2,2,2-trifluoroethyl)benzamide], the “YFM % Control (or Mortality) rating” value in series [1] is given as “A (80-100)”. Moreover, the mortality at 50 µg/cm2 in series [2] (setting [4]) and in series [3] (setting [4]) was 50 to 100% in each case.
With `O=C(NCC(F)(F)F)c1cc(NC(=O)[C@H]2[C@H](c3ccc(C(F)(F)F)c(Cl)c3)C2(Cl)Cl)ccc1Cl` (relative stereo) [F116, 2-Chloro-5-(trans-2,2-dichloro-3-(3-chloro-4-(trifluoromethyl)phenyl)cyclopropane-1-carboxamido)-N-(2,2,2-trifluoroethyl)benzamide], the “YFM % Control (or Mortality) rating” value in series [1] was “A (80-100)”. The mortality at 50 µg/cm2 in series [2] (setting [4]) and in series [3] (setting [4]) was 50 to 100% in each case.
As for `O=C(NCC(F)(F)F)c1cc(NC(=O)[C@H]2[C@H](c3ccc(Cl)c(C(F)(F)F)c3)C2(Cl)Cl)ccc1Cl` (relative stereo) [F117, 2-Chloro-5-(trans-2,2-dichloro-3-(4-chloro-3-(trifluoromethyl)phenyl)cyclopropane-1-carboxamido)-N-(2,2,2-trifluoroethyl)benzamide], the “YFM % Control (or Mortality) rating” value in series [1] is “A (80-100)”. The mortality at 50 µg/cm2 in series [2] (setting [4]) and in series [3] (setting [4]) was 50 to 100% in each case.
Take `O=C(NCC(F)(F)F)c1cc(NC(=O)[C@H]2[C@H](c3ccc(F)c(Br)c3)C2(Cl)Cl)ccc1Cl` (relative stereo) [F118, 5-(trans-3-(3-Bromo-4-fluorophenyl)-2,2-dichlorocyclopropane-1-carboxamido)-2-chloro-N-(2,2,2-trifluoroethyl)benzamide]: the “YFM % Control (or Mortality) rating” value in series [1] was “A (80-100)”. Moreover, the mortality at 50 µg/cm2 in series [2] (setting [4]) and in series [3] (setting [4]) was 50 to 100% each time.
As to `O=C(NCC(F)(F)F)c1cc(NC(=O)[C@H]2[C@H](c3ccc(F)c(C(F)(F)F)c3)C2(Cl)Cl)ccc1Cl` (relative stereo) [F119, 2-Chloro-5-(trans-2,2-dichloro-3-(4-fluoro-3-(trifluoromethyl)phenyl)cyclopropane-1-carboxamido)-N-(2,2,2-trifluoroethyl)benzamide], the “YFM % Control (or Mortality) rating” value in series [1] was “A (80-100)”. Further, the mortality at 50 µg/cm2 in series [2] (setting [4]) and in series [3] (setting [4]) was 50 to 100% in each case.
Take `O=C(NCC(F)(F)F)c1cc(NC(=O)[C@H]2[C@H](c3ccc(Cl)c(F)c3)C2(Cl)Cl)ccc1Cl` (relative stereo) [F120, 2-Chloro-5-(trans-2,2-dichloro-3-(4-chloro-3-fluorophenyl)cyclopropane-1-carboxamido)-N-(2,2,2-trifluoroethyl)benzamide]: the “YFM % Control (or Mortality) rating” value in series [1] is recorded as “A (80-100)”. In addition, the mortality at 50 µg/cm2 in series [2] (setting [4]) and in series [3] (setting [4]) was 50 to 100% each time.
`O=C(NCC(F)(F)F)c1cc(NC(=O)[C@H]2[C@H](c3cc(F)cc(F)c3)C2(Cl)Cl)ccc1Cl` (relative stereo) [F121, 2-Chloro-5-(trans-2,2-dichloro-3-(3,5-difluorophenyl)cyclopropane-1-carboxamido)-N-(2,2,2-trifluoroethyl)benzamide]: the “YFM % Control (or Mortality) rating” value in series [1] is given as “A (80-100)”. The mortality at 50 µg/cm2 in series [2] (setting [4]) and in series [3] (setting [4]) was 50 to 100% in each case.

In general, mortality refers to the percentage killed.
